Results reported in US20200390755A1, “COMPOUND FOR TREATING NERVOUS SYSTEM DISEASES AND USE THEREOF” (SHAANXI MICOT TECHNOLOGY CO., LTD., priority 2018, published 2020).

How the values were obtained:
[1] = tested on: Phospho-Akt S473; assay: ELISA analysis of Phospho-Akt S473 in primary cortical neuron cells; assay type: cell-based, mouse; conditions: 500 nM, 10 min at 37° C.
Procedure: The primary cortical neuron cells were cultured in the same way as in Example 21, and after maturity, appropriate amount of freshly prepared culture medium was added until final volume in each well was 2 mL. The experiment included a blank control group (Vehicle), a positive control group BDNF (10 ng/mL), a control compound group (500 nM), and 6 test compound groups (500 nM). Three repeats were set for each dose. After incubating at 37° C. for 10 min, the culture solution was discarded and the cells were washed with pre-chilled PBS, and then 40 μL of pre-chilled lysate (RIPA buffer 10 mL and protease and phosphatase inhibitor 100 μL) was added to each well for lysis on ice for 30 min. After lysis, the cell was crushed by ultrasonic cell crusher, centrifuged at 14000 rpm for 20 min at 4° C. The supernatant was transferred to a new 1.5 mL centrifuge tube to extract protein. The p-Akt ELISA experiment quantitatively detected the intracellular p-Akt protein level.
A series of p-Akt standard solutions with different concentrations were prepared, and the absorbance value was measured to make a standard curve. Phospho-Akt1 (Ser473) sandwich ELISA kit was purchased from Cell Signaling Technology (catalog number 7160). The antibody was coated in a 96-well plate at 4° C. overnight and was washed. The coated plate was blocked with 2% bovine serum albumin (BSA), and after sufficient washing, 100 μL of sample diluent (supplied in the kit) was added to each well to dilute the extracted protein. The plate was incubated overnight at 4° C. After washing 4 times with 200 μL of washing buffer (supplied in the kit), 100 μL/well of detection antibody was added and the plate was incubated at 37° C. for 1 hour. After 4 washes, 100 μL of HRP-conjugated secondary antibody (supplied in the kit) was added and the plate was incubated at 37° C. for 30 minutes. After the final wash, 100 μL of TMB substrate was added to each well and the plate was incubated at 37° C. for 10 minutes. TMB was use as a substrate to detect the signal, since TMB can be oxidized to produce a blue solution. The reaction was stopped by adding 100 μL/well stop solution, and the test result can remain stable within one hour after the stop of the reaction. The value of each well at 450 nm and 650 nm was detected using a microplate reader. The optical density (OD) was determined by subtracting the reading at 650 nm (disturbance from the solution itself) from the reading at 450 nm. According to the OD value corresponding to the standard curve, the p-Akt concentration in each well was obtained.
the data of each group was expressed as mean standard error (x±SEM). The ratio of the detection results of each positive control group (BNDF), control compound group (the same control compound as in Example 21) and each test compound group to the blank control group was used as an indicator to compare the p-Akt test results of the positive control group, control compound group, and each test compound group. One-way ANOVA and LSD post-hoc test were used to compare the measurement data among multiple groups, and P<0.05 was considered statistically significant.

[2] = tested on: WT mice; assay: Slope balance beam experiment, WT mice; assay type: in vivo, mouse; conditions: 5 mg/kg/d intragastric
Procedure: 7-week-old N171-82Q HD male mice were paired with female B6C3F1/J hybrid mice to obtain newborn mice. From 21 days of age, male mice were housed in separate cages. 0.5 cm of mouse tail tissue was removed to extract DNA to determine the genotype of the mouse, such that N171-82Q HD mice and WT mice needed for the experiment were obtained. The mice were randomly divided into WT Vehicle group (normal mice), WT test compound group (administration group of normal mice, 5 mg/kg/d, n=10), HD Vehicle group (blank group of HD mice, n=15), HD test compound group (administration groups 1-5 of HD mice, 5 mg/kg/d, n=10). The test compound was suspended in 1% CMC-Na solution and administered by intragastric administration until the end of the study. The weights of the mice were measured every week. Behavioral tests were performed at 12 weeks, 18 weeks, and 24 weeks of age to investigate motor function. At 20 weeks, 3 samples of tissue from each group were used for western blotting and immunohistochemistry. At 24 weeks, MRI scans were performed. At the end of the study, the effect of the test compound on the mortality of mice was evaluated. The software Sigmaplot 13.0 was used for statistical analysis of the data, and the data of each group was expressed as mean standard error (x±SEM). Behavioral test results were analyzed using two-way (genotype and processing factor) ANOVA and post-ho tests, the comparison and statistics of weight data were performed using two-way (genotype and age) ANOVA of repeated measures, and mortality was counted using Kaplan-Meier method. Other measurement data were analyzed by one-way ANOVA. P<0.05 was considered statistically significant. The motor function of mice was evaluated by the rotarod experiment and three types of balance beam experiments. The shorter the time for mouse to cross the balance beam, and the longer the time to drop, the stronger the coordination ability of the mouse. […] If the time for crossing the beams was greater than 60 seconds, it was recorded as 60 seconds.

Compound | Relative content of p-Akt protein (ELISA, ratio to blank control group) [1] | Time for crossing the beams, slope balance beam ([2]; 12 w) | Time for crossing the beams, slope balance beam ([2]; 18 w) | Time for crossing the beams, slope balance beam ([2]; 24 w)
COc1ccc2c(=O)cc(-c3ccc(N4CCCCC4)cc3)oc2c1OC [Example 2, 7,8-dimethoxy-2-(4-(piperidin-1-yl)phenyl)-4H-chromen-4-one] | 221.67±3.69% | – | – | –
CC1(C)CCN(c2ccc(-c3cc(=O)c4ccc(O)c(O)c4o3)cc2)CC1 [Example 4, 2-(4-(4,4-dimethylpiperidin-1-yl)phenyl)-7,8-dihydroxy-4H-chromen-4-one] | 224.33±3.27% | – | – | –
O=c1cc(-c2ccc(N3CCCCC3)cc2)oc2c(O)c(O)ccc12 [Example 1, 7,8-dihydroxy-2-(4-(piperidin-1-yl)phenyl)-4H-chromen-4-one] | 212.00±2.122% | 18.82 ± 28.33 s | 12.45 ± 6.23 s | 15.50 ± 6.11 s
CN(C)C1CCN(c2ccc(-c3cc(=O)c4ccc(O)c(O)c4o3)cc2)CC1 [Example 3, 2-(4-(4-(dimethylamino)piperidin-1-yl)phenyl)-7,8-dihydroxy-4H-chromen-4-one] | 247.33±3.18% | – | – | –
CC1CC(C)CN(c2ccc(-c3cc(=O)c4ccc(O)c(O)c4o3)cc2)C1 (centres unmarked) [Example 5, 2-(4-(3,5-dimethylpiperidin-1-yl)phenyl)-7,8-dihydroxy-4H-chromen-4-one] | 217.32±2.57% | – | – | –
